Measurements reported in patent US12390437B2, “Itaconic acid derivatives and uses thereof intreating an inflammatory disease or a disease associated with an undesirable immune response” (Sitryx Therapeutics Limited, priority 2019, dated 2025).

Tested on: hepatocytes
Test: Hepatocyte stability assay (human)
Type: in vitro ADME
Details: 10 μM compound, 0.5×10^6 cells/mL, 60 minutes
Outline: (§1)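 Cryopreserved hepatocytes (viability >70%), 0.5×10^6 cells/mL in Leibovitz buffer, incubated at 37 °C with 10 μM compound (0.1% DMSO), duplicates; buffer-only incubations as negative control. Samples at 0-60 min quenched in acetonitrile, parent measured by LC-MS/MS; half-life and Clint (μL min^−1 10^−6 cells) from ln % remaining versus time slope.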

CIint (μL min^−1 10^−6 cells)	SMILES
8	C=C(CC(=O)OC1CCCCCCC1)C(=O)OCC(=O)O [Example 90, 2-((4-(cyclooctyloxy)-2-methylene-4-oxobutanoyl)oxy)acetic acid]

Tested on: not listed separately
Test: Hepatocyte stability assay (human)
Type: in vitro ADME
Details: cryopreserved hepatocytes, 10 μM compound, 0.5×10^6 cells/mL, 60 minutes, read-out: T½
Outline: as §1

half-life at 10 μM [h]	SMILES
3.05	C=C(CC(=O)OC1CCCCCCC1)C(=O)OCC(=O)O [Example 90, 2-((4-(cyclooctyloxy)-2-methylene-4-oxobutanoyl)oxy)acetic acid]

Tested on: IL-6 cytokine output from THP-1s
Test: THP-1 AlphaLISA IL-6 cytokine assay
Type: cell-based, human
Details: Homo sapiens; PMA-differentiated THP-1 cells, LPS 24 hr then Nigericin 1 hour
Outline: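 Cells are differentiated with PMA over 72 h, switched to 1% FBS medium and treated with compound for 30 min before LPS stimulation for 24 h. Nigericin is added for a final hour, and secreted cytokine is measured by AlphaLISA, with IC50 fitted from percent inhibition.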

IC50 [µM]	SMILES
9.8	C=C(CC(=O)OC1CCCCCCC1)C(=O)OCC(=O)O [Example 90, 2-((4-(cyclooctyloxy)-2-methylene-4-oxobutanoyl)oxy)acetic acid]

Tested on: not listed separately
Test: Mouse pharmacokinetic study, oral administration
Type: in vivo
Details: male, C57BL/6, mouse, plasma, po, 100 mg/kg, plasma, male C57BL/6 mice, oral gavage 100 mg/kg, 0.083 h; read-out: Parent compound concentrations following oral administration, Time 0.083 h
Outline: (§2)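 Young adult male C57BL/6 mice get a single 10 mg/kg IV or 100 mg/kg oral dose. Semi-serial plasma sampling, three mice per point, and LC-MS/MS quantitation follow.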

concentration at 0.083 h [ng/mL]	SMILES
22900	C=C(CC(=O)OC1CCCCCCC1)C(=O)OCC(=O)O [Example 90, 2-((4-(cyclooctyloxy)-2-methylene-4-oxobutanoyl)oxy)acetic acid]

Same assay, conditions: male, C57BL/6, mouse, plasma, po, 100 mg/kg, plasma, male C57BL/6 mice, oral gavage 100 mg/kg, 0.25 h; read-out: Parent compound concentrations following oral administration, Time 0.25 h

concentration at 0.25 h [ng/mL]	SMILES
10600	C=C(CC(=O)OC1CCCCCCC1)C(=O)OCC(=O)O [Example 90, 2-((4-(cyclooctyloxy)-2-methylene-4-oxobutanoyl)oxy)acetic acid]

Same assay, conditions: male, C57BL/6, mouse, plasma, po, 100 mg/kg, plasma, male C57BL/6 mice, oral gavage 100 mg/kg, 0.5 h; read-out: Parent compound concentrations following oral administration, Time 0.5 h

concentration at 0.5 h [ng/mL]	SMILES
6200	C=C(CC(=O)OC1CCCCCCC1)C(=O)OCC(=O)O [Example 90, 2-((4-(cyclooctyloxy)-2-methylene-4-oxobutanoyl)oxy)acetic acid]

Same assay, conditions: male, C57BL/6, mouse, plasma, po, 100 mg/kg, plasma, male C57BL/6 mice, oral gavage 100 mg/kg, 1 h; read-out: Parent compound concentrations following oral administration, Time 1 h

concentration at 1 h [ng/mL]	SMILES
3370	C=C(CC(=O)OC1CCCCCCC1)C(=O)OCC(=O)O [Example 90, 2-((4-(cyclooctyloxy)-2-methylene-4-oxobutanoyl)oxy)acetic acid]

Same assay, conditions: male, C57BL/6, mouse, plasma, po, 100 mg/kg, plasma, male C57BL/6 mice, oral gavage 100 mg/kg, 2 h; read-out: Parent compound concentrations following oral administration, Time 2 h

concentration at 2 h [ng/mL]	SMILES
3470	C=C(CC(=O)OC1CCCCCCC1)C(=O)OCC(=O)O [Example 90, 2-((4-(cyclooctyloxy)-2-methylene-4-oxobutanoyl)oxy)acetic acid]

Same assay, conditions: male, C57BL/6, mouse, plasma, po, 100 mg/kg, plasma, male C57BL/6 mice, oral gavage 100 mg/kg, 4 h; read-out: Parent compound concentrations following oral administration, Time 4 h

concentration at 4 h [ng/mL]	SMILES
1640	C=C(CC(=O)OC1CCCCCCC1)C(=O)OCC(=O)O [Example 90, 2-((4-(cyclooctyloxy)-2-methylene-4-oxobutanoyl)oxy)acetic acid]

Same assay, conditions: male, C57BL/6, mouse, plasma, po, 100 mg/kg, plasma, male C57BL/6 mice, oral gavage 100 mg/kg, 6 h; read-out: Parent compound concentrations following oral administration, Time 6 h

concentration at 6 h [ng/mL]	SMILES
1050	C=C(CC(=O)OC1CCCCCCC1)C(=O)OCC(=O)O [Example 90, 2-((4-(cyclooctyloxy)-2-methylene-4-oxobutanoyl)oxy)acetic acid]

Same assay, conditions: male, C57BL/6, mouse, plasma, po, 100 mg/kg, plasma, male C57BL/6 mice, oral gavage 100 mg/kg, 8 h; read-out: Parent compound concentrations following oral administration, Time 8 h

concentration at 8 h [ng/mL]	SMILES
500	C=C(CC(=O)OC1CCCCCCC1)C(=O)OCC(=O)O [Example 90, 2-((4-(cyclooctyloxy)-2-methylene-4-oxobutanoyl)oxy)acetic acid]

Same assay, conditions: male, C57BL/6, mouse, plasma, po, 100 mg/kg, plasma, male C57BL/6 mice, oral gavage 100 mg/kg, 24 h; read-out: Parent compound concentrations following oral administration, Time 24 h

concentration at 24 h [ng/mL]	SMILES
1.1	C=C(CC(=O)OC1CCCCCCC1)C(=O)OCC(=O)O [Example 90, 2-((4-(cyclooctyloxy)-2-methylene-4-oxobutanoyl)oxy)acetic acid]

Tested on: not listed separately
Test: Mouse pharmacokinetic study, intravenous dosing
Type: in vivo
Details: male, C57BL/6, mouse, iv; plasma, 10 mg/kg i.v., time 0.05 h; read-out: Parent compound concentration following intravenous administration
Outline: as §2

concentration at 0.05 h [ng/mL]	SMILES
19200	C=C(CC(=O)OC1CCCCCCC1)C(=O)OCC(=O)O [Example 90, 2-((4-(cyclooctyloxy)-2-methylene-4-oxobutanoyl)oxy)acetic acid]

Same assay, conditions: male, C57BL/6, mouse, iv; plasma, 10 mg/kg i.v., time 0.133 h; read-out: Parent compound concentration following intravenous administration

concentration at 0.133 h [ng/mL]	SMILES
7160	C=C(CC(=O)OC1CCCCCCC1)C(=O)OCC(=O)O [Example 90, 2-((4-(cyclooctyloxy)-2-methylene-4-oxobutanoyl)oxy)acetic acid]

Same assay, conditions: male, C57BL/6, mouse, iv; plasma, 10 mg/kg i.v., time 0.25 h; read-out: Parent compound concentration following intravenous administration

concentration at 0.25 h [ng/mL]	SMILES
2020	C=C(CC(=O)OC1CCCCCCC1)C(=O)OCC(=O)O [Example 90, 2-((4-(cyclooctyloxy)-2-methylene-4-oxobutanoyl)oxy)acetic acid]

Same assay, conditions: male, C57BL/6, mouse, iv; plasma, 10 mg/kg i.v., time 0.5 h; read-out: Parent compound concentration following intravenous administration

concentration at 0.5 h [ng/mL]	SMILES
1600	C=C(CC(=O)OC1CCCCCCC1)C(=O)OCC(=O)O [Example 90, 2-((4-(cyclooctyloxy)-2-methylene-4-oxobutanoyl)oxy)acetic acid]

Same assay, conditions: male, C57BL/6, mouse, iv; plasma, 10 mg/kg i.v., time 1 h; read-out: Parent compound concentration following intravenous administration

concentration at 1 h [ng/mL]	SMILES
89	C=C(CC(=O)OC1CCCCCCC1)C(=O)OCC(=O)O [Example 90, 2-((4-(cyclooctyloxy)-2-methylene-4-oxobutanoyl)oxy)acetic acid]

Same assay, conditions: male, C57BL/6, mouse, iv; plasma, 10 mg/kg i.v., time 2 h; read-out: Parent compound concentration following intravenous administration

concentration at 2 h [ng/mL]	SMILES
3.6	C=C(CC(=O)OC1CCCCCCC1)C(=O)OCC(=O)O [Example 90, 2-((4-(cyclooctyloxy)-2-methylene-4-oxobutanoyl)oxy)acetic acid]

Same assay, conditions: male, C57BL/6, mouse, iv; plasma, 10 mg/kg i.v., time 4 h; read-out: Parent compound concentration following intravenous administration

concentration at 4 h [ng/mL]	SMILES
2.8	C=C(CC(=O)OC1CCCCCCC1)C(=O)OCC(=O)O [Example 90, 2-((4-(cyclooctyloxy)-2-methylene-4-oxobutanoyl)oxy)acetic acid]

Same assay, conditions: male, C57BL/6, mouse, iv; plasma, 10 mg/kg i.v., time 6 h; read-out: Parent compound concentration following intravenous administration

concentration at 6 h [ng/mL]	SMILES
1.7	C=C(CC(=O)OC1CCCCCCC1)C(=O)OCC(=O)O [Example 90, 2-((4-(cyclooctyloxy)-2-methylene-4-oxobutanoyl)oxy)acetic acid]

Same assay, conditions: male, C57BL/6, mouse, iv; plasma, 10 mg/kg i.v., time 8 h; read-out: Parent compound concentration following intravenous administration

concentration at 8 h [ng/mL]	SMILES
1.2	C=C(CC(=O)OC1CCCCCCC1)C(=O)OCC(=O)O [Example 90, 2-((4-(cyclooctyloxy)-2-methylene-4-oxobutanoyl)oxy)acetic acid]
